Experimental data: patent US10745389B2, “HDAC6 selective inhibitors, preparation method therefor, and application thereof” (CSTONE PHARMACEUTICALS (SUZHOU) CO., LTD., priority 2017, dated 2020)

Tested on: human myeloma MM.1S cells subcutaneous xenograft tumor
Assay: In vivo pharmacodynamic study with Ixazomib, MM.1S subcutaneous xenograft in CB-17 SCID model
Set-up: species or system CB-17 SCID mouse
Conditions: Ixazomib 4 mg/kg administered alone, 21st day
Procedure: The purpose of this experiment was to investigate the in vivo therapeutic effect of the compounds of the present invention in combination with proteasome inhibitor Ixazomib on human myeloma MM.1S cell subcutaneous xenografts in the CB-17 SCID model.
Human myeloma MM. S cells were cultured in vitro in a single layer, culture environment was RPMI-1640 medium (supplier: Gibco; Cat. No. 22400-089) supplemented with 10% fetal bovine serum, 37° C. 5% CO2 incubator. Then passage was done by routinely digested with trypsin-EDTA twice a week. When the cell saturation rate reached 80%-90%, the cells were collected, counted, and inoculated.
0.2 mL of 5×10^6 MM.1S cells were subcutaneously inoculated into the right back of each mouse (Beijing Weitong Lihua Biotechnology Co., Ltd., female, 6-8 weeks old) (PBS: Matrigel=1:1)). Administration by groups was initiated when the average tumor volume reached 100-150 mm^3.
Animals were monitored daily for health and mortality, routine tests includes observations of tumor growth and drug treatment effects on animal performance, such as behavioral activities, food intake (visual inspection only), weight change (measured every other day), appearance signs or other abnormal conditions. The number of animal deaths and side effects in the group were recorded based on the number of animals in each group.
The experimental index is to investigate whether tumor growth is inhibited, delayed or cured. Tumor diameters were measured with vernier calipers three times a week. The tumor volume is calculated by: V=0.5a×b^2, where a and b represent the long and short diameters of the tumor, respectively.
The antitumor effect of the compound was evaluated by TGI (%) or relative tumor growth rate T/C (%). TGI (%), reflecting the tumor growth inhibition rate. […]

Question: Which tumor volume does the source give for `CC(C)C[C@H](NC(=O)CNC(=O)c1cc(Cl)ccc1Cl)B(O)O` [Ixazomib] here?
Answer: The tumor volume was 916 mm^3.

Question: And the T/C (vs solvent control)?
Answer: Its T/C is 34.97%.

Question: And the TGI (vs solvent control)?
Answer: The TGI was 68.65%.
